According to the supplement of paper PMC8149375:

Assays:
Details in all cases: treatment: drug alone; 5 days
[1] = system: 786-O; assay: minimum viability across doses, drug alone, relative to DMSO (fraction); higher = less growth inhibition
Experimental: (§1)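 Primary HTS: 8 RCC cell lines treated with 8 doses (up to 10 uM) of each library drug alone for 5 days; viability read by CellTiter-Glo and normalised to DMSO. GI50 was fitted with XLfit (4-parameter), AUC is the area under the dose-response curve, and minimum viability is the lowest fraction of DMSO viability across doses.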

[2] = system: UO-31; assay: as above
Experimental: as §1

[3] = system: A498; assay: as above
Experimental: as §1

[4] = system: 769-P; assay: as above
Experimental: as §1

[5] = system: CAKI-1; assay: as above
Experimental: as §1

[6] = system: SN12C; assay: as above
Experimental: as §1

[7] = system: TK-10; assay: as above
Experimental: as §1

[8] = system: ACHN; assay: as above
Experimental: as §1

[9] = system: 786-O; assay: AUC of dose-response viability curve, drug alone (arbitrary (AUC of normalised viability)); higher = less growth inhibition
Experimental: as §1

[10] = system: UO-31; assay: as above
Experimental: as §1

[11] = system: A498; assay: as above
Experimental: as §1

[12] = system: 769-P; assay: as above
Experimental: as §1

[13] = system: CAKI-1; assay: as above
Experimental: as §1

[14] = system: SN12C; assay: as above
Experimental: as §1

[15] = system: TK-10; assay: as above
Experimental: as §1

[16] = system: ACHN; assay: as above
Experimental: as §1

[17] = system: 786-O; assay: GI50, drug alone; higher = less potent
Experimental: as §1

[18] = system: UO-31; assay: GI50, drug alone; higher = less potent
Experimental: as §1

[19] = system: A498; assay: GI50, drug alone; higher = less potent
Experimental: as §1

[20] = system: 769-P; assay: GI50, drug alone; higher = less potent
Experimental: as §1

[21] = system: CAKI-1; assay: GI50, drug alone; higher = less potent
Experimental: as §1

[22] = system: SN12C; assay: GI50, drug alone; higher = less potent
Experimental: as §1

[23] = system: TK-10; assay: GI50, drug alone; higher = less potent
Experimental: as §1

[24] = system: ACHN; assay: GI50, drug alone; higher = less potent
Experimental: as §1

| Compound | minimum viability across doses [1] | minimum viability across doses [2] | minimum viability across doses [3] | minimum viability across doses [4] | minimum viability across doses [5] | minimum viability across doses [6] | minimum viability across doses [7] | minimum viability across doses [8] | AUC of dose-response viability curve [9] | AUC of dose-response viability curve [10] | AUC of dose-response viability curve [11] | AUC of dose-response viability curve [12] | AUC of dose-response viability curve [13] | AUC of dose-response viability curve [14] | AUC of dose-response viability curve [15] | AUC of dose-response viability curve [16] | GI50, drug alone [17] | GI50, drug alone [18] | GI50, drug alone [19] | GI50, drug alone [20] | GI50, drug alone [21] | GI50, drug alone [22] | GI50, drug alone [23] | GI50, drug alone [24] |
| --- | --- | --- | --- | --- | --- | --- | --- | --- | --- | --- | --- | --- | --- | --- | --- | --- | --- | --- | --- | --- | --- | --- | --- | --- |
| O=C1NC(=O)C(c2ccccc2[N+](=O)[O-])=C1Nc1ccc(O)c(Cl)c1 | 0.559 | 0.634 | 0.922 | 0.898 | 0.869 | 0.802 | 0.804 | 0.879 | 2.33 | 4 | 3.58 | 3.29 | 3.4 | 3.05 | 3.02 | 3.39 | > 10 µM | > 10 µM | > 10 µM | > 10 µM | > 10 µM | > 10 µM | > 10000 nM | > 10000 nM |
| Cc1cc2c(F)c(Oc3ncnn4cc(OC[C@@H](C)O)c(C)c34)ccc2[nH]1 | 0.668 | 0.457 | 1.09 | 0.901 | 0.427 | 0.909 | 0.733 | 0.628 | 3.09 | 4.46 | 4.21 | 3.39 | 3.4 | 3.28 | 3.23 | 3.04 | > 10 µM | 9.55 µM | > 10 µM | > 10 µM | 8.98 µM | > 10 µM | > 10000 nM | > 10000 nM |
| CN1CCN(C2CCN(C(=O)Nc3cc(Oc4ccc(NC(=O)C5(C(=O)Nc6ccc(F)cc6)CC5)c(F)c4)ccn3)CC2)CC1 [Golvatinib (E7050)] | 0.0352 | 0.471 | 0.613 | 0.423 | 0.0988 | 0.346 | 0.284 | 0.0761 | 2.78 | 5.28 | 4.37 | 3.55 | 3.05 | 3.38 | 2.56 | 2.67 | 4.23 µM | 9.86 µM | > 10 µM | 9.71 µM | 3.06 µM | 7.83 µM | 2590 nM | 1510 nM |
| Cl.Cl.Clc1ccc(Nc2nnc(Cc3ccncc3)c3ccccc23)cc1 [Vatalanib dihydrochloride (PTK787)] | 0.692 | 1.11 | 0.933 | 1.01 | 0.807 | 0.901 | 0.887 | 0.587 | 3.3 | 4.41 | 4.65 | 3.69 | 3.48 | 3.4 | 3.41 | 2.59 | > 10 µM | > 10 µM | > 10 µM | > 10 µM | > 10 µM | > 10 µM | > 10000 nM | > 10000 nM |
| Cn1cnc2c(F)c(Nc3ccc(Br)cc3Cl)c(C(=O)NOCCO)cc21 [AZD6244 (Selumetinib)] | 0.371 | 0.728 | 0.59 | 0.381 | 0.23 | 0.664 | 0.419 | 0.371 | 2.41 | 4 | 3.06 | 2.75 | 2.51 | 2.88 | 2.45 | 2.59 | 1.14 µM | > 10 µM | > 10 µM | 3.95 µM | 1.66 µM | > 10 µM | 3050 nM | 3000 nM |
| COc1cccc2cc(-c3nc([C@H]4CC[C@H](C(=O)O)CC4)n4ncnc(N)c34)[nH]c12 [OSI-027] | 0.185 | 0.00484 | 0.148 | 0.408 | 0.0475 | 0.168 | 0.191 | 0.105 | 2.49 | 3.1 | 3.75 | 3.12 | 2.58 | 2.77 | 2.64 | 2.85 | 1.66 µM | 2.52 µM | 9.27 µM | 8.49 µM | 1.17 µM | 2.39 µM | 1930 nM | 1910 nM |
| CCCNC(=O)Nc1ccc(Oc2ncnc3cc(OC)c(OC)cc23)cc1Cl [KRN 633] | 0.366 | 0.734 | 0.974 | 0.861 | 0.817 | 0.718 | 0.664 | 0.742 | 2.11 | 3.91 | 4.07 | 3.34 | 3.24 | 2.93 | 2.8 | 2.92 | 3.93 µM | > 10 µM | > 10 µM | > 10 µM | > 10 µM | > 10 µM | > 10000 nM | > 10000 nM |
| N#CCNC(=O)c1ccc(-c2ccnc(Nc3ccc(N4CCOCC4)cc3)n2)cc1 [Cyt387] | 0.00487 | 0.0114 | 0.868 | 0.29 | 0.0592 | 0.434 | 0.152 | 0.0637 | 2.19 | 3.36 | 4.74 | 3.08 | 2.51 | 3.06 | 2.6 | 2.82 | 0.941 µM | 4.29 µM | > 10 µM | 6.39 µM | 1.42 µM | 8.32 µM | 2700 nM | 1980 nM |
| COc1cc2c(Nc3ccc(Br)cc3F)ncnc2cc1OCC1CCN(C)CC1 [Vandetanib (Zactima)] | 0.532 | 0.162 | 0.68 | 0.324 | 0.265 | 0.507 | 0.166 | 0.133 | 2.98 | 4.05 | 3.29 | 2.88 | 3.12 | 3.2 | 2.58 | 2.6 | > 10 µM | 9.07 µM | > 10 µM | 5.26 µM | 5.12 µM | > 10 µM | 1800 nM | 1570 nM |
